Data reported in US20260184725A1, “CYCLIC 2-AMINOPYRIMIDINE COMPOUND AND PHARMACEUTICAL COMPOSITION AND USE THEREOF” (SHANGHAI INSTITUTE OF ORGANIC CHEMISTRY, CHINESE ACADEMY OF …, priority 2023, published 2026).

Experiments:
[1] = Pharmacokinetic parameters in rats; format: in vivo; details: male, Sprague-Dawley, plasma, rat
Description: Sprague-Dawley rats (males, 3 per group), weighing 180 g to 220 g, were administered test compounds intravenously and orally at doses of 1 mg/kg and 5 mg/kg, respectively. The compounds were dissolved in a mixed solvent (5% DMSO+10% Solutol+85% PBS) for intravenous injection. 0.5% CMC-Na solution (800 cps to 1200 cps) was used as a suspension agent for oral administration. At designated time points, 0.2 mL of blood samples were collected via the jugular vein and placed into tubes containing K2-EDTA, stored on ice, and then centrifuged. Sampling intervals for the injection group were 0.083, 0.25, 0.5, 1, 2, 4, 8, and 24 hours, while for the oral group, sampling intervals were 0.25, 0.5, 1, 2, 4, 6, 8, and 24 hours. The blood samples were centrifuged at 6800 g for 6 minutes at 2° C. to 8° C. within 1 hour after collection and stored frozen at approximately −80° C. Subsequently, 200 μL of MeOH was used to precipitate 20 μL of plasma samples containing 100 ng/mL IS. The mixture was vortexed for 1 minute and then centrifuged at 18000 g for 7 minutes. 200 μL of the supernatant was transferred to a 96-well plate, and 1 μL of the supernatant sample was injected for LC-MS/MS analysis. Finally, Phoenix WinNonlin7.0 software was used to calculate the pharmacokinetic (PK) parameters.

EGFR^L858R/T790M/C797S = EGFR^L858R/T790M/C797S (Homo sapiens, UniProt P00533, C797S/L858R/T790M); test: ELISA kinase activity inhibition, EGFR L858R/T790M/C797S; format: biochemical; details: ATP 5 μM, read-out: The average IC50 value (nM) for inhibiting the activity of different tyrosine kinases, EGFR^L858R/T790M/C797S
Sequence of EGFR^L858R/T790M/C797S (P00533 25-1210 T790M/C797S/L858R): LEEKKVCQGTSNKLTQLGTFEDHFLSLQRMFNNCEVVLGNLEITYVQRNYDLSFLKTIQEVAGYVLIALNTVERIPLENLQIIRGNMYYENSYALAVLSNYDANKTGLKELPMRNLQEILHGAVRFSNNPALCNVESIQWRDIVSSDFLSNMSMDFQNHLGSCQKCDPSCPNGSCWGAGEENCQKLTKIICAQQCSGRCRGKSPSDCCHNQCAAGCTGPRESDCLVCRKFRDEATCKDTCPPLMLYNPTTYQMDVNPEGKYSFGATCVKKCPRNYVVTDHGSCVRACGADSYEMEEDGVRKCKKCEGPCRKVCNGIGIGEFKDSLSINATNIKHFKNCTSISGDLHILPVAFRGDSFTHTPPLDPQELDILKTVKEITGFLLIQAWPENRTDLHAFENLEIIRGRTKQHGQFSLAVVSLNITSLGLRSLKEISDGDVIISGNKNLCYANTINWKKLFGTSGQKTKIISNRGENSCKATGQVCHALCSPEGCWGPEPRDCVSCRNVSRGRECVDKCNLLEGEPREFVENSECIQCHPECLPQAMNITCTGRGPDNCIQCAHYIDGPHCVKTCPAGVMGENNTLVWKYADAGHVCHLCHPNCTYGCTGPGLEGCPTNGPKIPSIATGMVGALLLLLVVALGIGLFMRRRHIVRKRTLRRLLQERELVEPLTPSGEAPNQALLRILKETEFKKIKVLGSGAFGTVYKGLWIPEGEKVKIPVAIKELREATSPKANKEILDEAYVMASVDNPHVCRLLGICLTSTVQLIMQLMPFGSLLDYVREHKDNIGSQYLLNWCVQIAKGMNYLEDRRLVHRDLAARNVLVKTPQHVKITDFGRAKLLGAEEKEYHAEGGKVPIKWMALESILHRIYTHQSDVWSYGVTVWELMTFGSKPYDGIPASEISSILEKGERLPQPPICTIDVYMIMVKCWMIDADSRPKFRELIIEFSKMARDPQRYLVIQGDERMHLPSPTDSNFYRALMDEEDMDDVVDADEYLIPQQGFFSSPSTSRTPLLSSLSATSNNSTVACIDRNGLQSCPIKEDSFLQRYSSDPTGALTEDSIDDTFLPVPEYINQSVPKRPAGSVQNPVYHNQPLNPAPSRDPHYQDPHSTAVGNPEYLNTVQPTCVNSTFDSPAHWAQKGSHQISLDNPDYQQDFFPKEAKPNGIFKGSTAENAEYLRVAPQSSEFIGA
Description: (§1) Enzyme-Linked Immunosorbent Assay (ELISA) was used to detect the inhibitory effect of compounds on kinase activity.
(§2) The main experimental steps were as follows: Enzyme reaction substrate Poly (Glu, Tyr)4:1 was diluted with potassium free PBS (10 mM sodium phosphate buffer, 150 mM NaCl, pH 7.2-7.4) to 20 μg/mL, and reacted at 37° C. for 12 hours to 16 hours to coat the enzyme-linked immunosorbent assay plate. ATP solution (final concentration 5 μM) diluted with reaction buffer (50 mM HEPES pH 7.4, 50 mM MgCl2, 0.5 mM MnCl2, 0.2 mM Na3VO4, 1 mM DTT) was added to each well, followed by the test compound or solvent control, then the kinase reaction was initiated and the plate was shaken at 37° C. for 1 hour. The plate was washed three times with T-PBS, then added antibody PY99. The plate was shaken at 37° C. for 0.5 hours. After washing the plate with T-PBS, added horseradish peroxidase-labeled IgG and shaken at 37° C. for 0.5 hours. After washing the plate again, added 2 mg/mL of OPD colorimetric solution and incubated at 25° C. in the dark for 1 minutes to 10 minutes. […] The IC50 values were obtained from the inhibition curve analysis.

[2] = biological target: BaF3-EGFR (19del/T790M/C797S) (Homo sapiens, UniProt P00533, T790M/C797S, cells depend on it, form not given); test: CCK-8 cell proliferation, BaF3-EGFR(19del/T790M/C797S); format: cell-based; details: CCK-8, 72 hours; read-out: Average value of IC50 of inhibition against EGFR-mutant cells growth, BaF3-EGFR (19del/T790M/C797S)
Sequence of BaF3-EGFR (19del/T790M/C797S) (P00533 with tags, fused parts or gaps DEL746-750/T790M/C797S, form open): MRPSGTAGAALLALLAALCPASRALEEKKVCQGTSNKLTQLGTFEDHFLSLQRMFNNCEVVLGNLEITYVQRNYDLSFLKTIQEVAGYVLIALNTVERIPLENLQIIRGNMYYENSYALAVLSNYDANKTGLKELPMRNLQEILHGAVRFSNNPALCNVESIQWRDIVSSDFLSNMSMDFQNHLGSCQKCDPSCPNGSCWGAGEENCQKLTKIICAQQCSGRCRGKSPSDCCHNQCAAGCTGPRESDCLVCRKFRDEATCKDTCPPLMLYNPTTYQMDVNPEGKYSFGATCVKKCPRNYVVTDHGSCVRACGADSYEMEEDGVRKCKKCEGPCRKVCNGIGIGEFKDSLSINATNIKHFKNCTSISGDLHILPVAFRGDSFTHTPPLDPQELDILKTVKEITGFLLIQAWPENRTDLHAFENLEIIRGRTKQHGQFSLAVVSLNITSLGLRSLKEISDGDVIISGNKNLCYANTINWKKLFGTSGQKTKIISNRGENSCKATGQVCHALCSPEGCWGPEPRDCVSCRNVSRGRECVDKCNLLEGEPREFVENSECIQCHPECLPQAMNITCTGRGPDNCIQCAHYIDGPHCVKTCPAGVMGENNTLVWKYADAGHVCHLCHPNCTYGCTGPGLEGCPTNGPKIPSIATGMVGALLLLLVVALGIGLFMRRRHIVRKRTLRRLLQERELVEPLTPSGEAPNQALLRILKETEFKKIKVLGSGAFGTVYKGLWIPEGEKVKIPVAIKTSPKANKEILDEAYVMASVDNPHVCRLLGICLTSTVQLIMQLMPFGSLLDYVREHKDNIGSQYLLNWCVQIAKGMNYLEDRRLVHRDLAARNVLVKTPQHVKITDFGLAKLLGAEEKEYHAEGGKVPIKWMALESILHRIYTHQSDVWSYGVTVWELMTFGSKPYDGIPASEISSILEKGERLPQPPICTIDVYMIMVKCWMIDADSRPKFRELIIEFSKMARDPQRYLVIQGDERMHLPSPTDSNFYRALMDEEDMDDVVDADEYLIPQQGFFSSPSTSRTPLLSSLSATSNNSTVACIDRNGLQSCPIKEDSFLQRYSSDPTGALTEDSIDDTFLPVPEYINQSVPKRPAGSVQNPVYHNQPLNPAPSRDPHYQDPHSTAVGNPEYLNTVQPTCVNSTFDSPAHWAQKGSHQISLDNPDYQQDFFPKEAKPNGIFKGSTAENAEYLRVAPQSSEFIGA
Description: (§3) Ba/F3 cells were obtained from Deutsche Sammlung von Mikroorganismen und Zellkulturen GmbH (DSMZ). […] All cells used in the study were verified by short tandem repeat (STR) analysis conducted by Genesky.
(§4) Tumor cell viability was assessed using a CCK-8 cell counting kit (A311-01/02, Vazyme, Nanjing, China). Cells were seeded at a density of 3000 cells per well into 96-well plates and cultured overnight. Subsequently, the cells were treated with compounds of different concentrations and incubated for 72 hours. After 72 hours, 10 μL of CCK-8 solution was added to each well. The plates were then returned to the incubator and incubated at 37° C. for 2 hours. The absorbance was measured at 450 nm using a microplate reader. A calibration curve was constructed using data obtained from wells containing known numbers of viable cells.

[3] = tested on: PC-9-OR (19del/T790M/C797S); test: CCK-8 cell proliferation, PC-9-OR; format: cell-based; details: PC9-OR; CCK-8, 72 hours; read-out: Average value of IC50 of inhibition against EGFR-mutant cells growth, PC-9-OR (19del/T790M/C797S)
From the text: (§5) Ba/F3 cells were obtained from Deutsche Sammlung von Mikroorganismen und Zellkulturen GmbH (DSMZ). Ba/F3 cells stably expressing EGFR19del/T790M/C797S or EGFR L858R/T790M/C797S were generated by infecting parental cells with corresponding retroviruses. PC-9-OR was a tumor cell model obtained by simultaneously knocking in T790M and C797S mutations into 19del-activating mutation-dependent PC-9 tumor cells using CRISPR technology. This model, which proliferated dependent on EGFR19del/T790M/C797S resistance mutation, was used to evaluate the inhibitory activity of compounds against EGFR19del/T790M/C797S resistance mutants (Cancer Science. 2022; 113:709-720). All cells used in the study were verified by short tandem repeat (STR) analysis conducted by Genesky.
as §4

EGFR^19del/T790M/C797S = biological target: T1, EGFR^19del/T790M/C797S (Homo sapiens, UniProt P00533, T790M/C797S, form not given); test: ELISA kinase activity inhibition, EGFR 19del/T790M/C797S; format: biochemical; details: ATP 5 μM, read-out: The average IC50 value (nM) for inhibiting the activity of different tyrosine kinases, EGFR^19del/T790M/C797S
T1 construct: fused on or other part: Probably a GST tag on the cytoplasmic fragment, as in the vendor's product
T1 sequence (P00533 with tags, fused parts or gaps DEL746-750/T790M/C797S, form open): as above
Description: (§6) EGFR (WT) is a wild-type epidermal growth factor receptor.
as §1, §2

BaF3 parent cell = test: CCK-8 cell proliferation, BaF3 parent cell; format: cell-based; details: Mus musculus, BaF3; CCK-8, 72 hours; read-out: Average value of IC50 of inhibition against cells growth, BaF3 parent cell
From the text: as §5, §4

[4] = biological target: BaF3-EGFR (L858R/T790M/C797S) (Homo sapiens, UniProt P00533, T790M/C797S/L858R, cells depend on it); test: CCK-8 cell proliferation, BaF3-EGFR(L858R/T790M/C797S); format: cell-based; details: CCK-8, 72 hours; read-out: Average value of IC50 of inhibition against EGFR-mutant cells growth, BaF3-EGFR (L858R/T790M/C797S)
Sequence of BaF3-EGFR (L858R/T790M/C797S) (P00533 whole entry T790M/C797S/L858R): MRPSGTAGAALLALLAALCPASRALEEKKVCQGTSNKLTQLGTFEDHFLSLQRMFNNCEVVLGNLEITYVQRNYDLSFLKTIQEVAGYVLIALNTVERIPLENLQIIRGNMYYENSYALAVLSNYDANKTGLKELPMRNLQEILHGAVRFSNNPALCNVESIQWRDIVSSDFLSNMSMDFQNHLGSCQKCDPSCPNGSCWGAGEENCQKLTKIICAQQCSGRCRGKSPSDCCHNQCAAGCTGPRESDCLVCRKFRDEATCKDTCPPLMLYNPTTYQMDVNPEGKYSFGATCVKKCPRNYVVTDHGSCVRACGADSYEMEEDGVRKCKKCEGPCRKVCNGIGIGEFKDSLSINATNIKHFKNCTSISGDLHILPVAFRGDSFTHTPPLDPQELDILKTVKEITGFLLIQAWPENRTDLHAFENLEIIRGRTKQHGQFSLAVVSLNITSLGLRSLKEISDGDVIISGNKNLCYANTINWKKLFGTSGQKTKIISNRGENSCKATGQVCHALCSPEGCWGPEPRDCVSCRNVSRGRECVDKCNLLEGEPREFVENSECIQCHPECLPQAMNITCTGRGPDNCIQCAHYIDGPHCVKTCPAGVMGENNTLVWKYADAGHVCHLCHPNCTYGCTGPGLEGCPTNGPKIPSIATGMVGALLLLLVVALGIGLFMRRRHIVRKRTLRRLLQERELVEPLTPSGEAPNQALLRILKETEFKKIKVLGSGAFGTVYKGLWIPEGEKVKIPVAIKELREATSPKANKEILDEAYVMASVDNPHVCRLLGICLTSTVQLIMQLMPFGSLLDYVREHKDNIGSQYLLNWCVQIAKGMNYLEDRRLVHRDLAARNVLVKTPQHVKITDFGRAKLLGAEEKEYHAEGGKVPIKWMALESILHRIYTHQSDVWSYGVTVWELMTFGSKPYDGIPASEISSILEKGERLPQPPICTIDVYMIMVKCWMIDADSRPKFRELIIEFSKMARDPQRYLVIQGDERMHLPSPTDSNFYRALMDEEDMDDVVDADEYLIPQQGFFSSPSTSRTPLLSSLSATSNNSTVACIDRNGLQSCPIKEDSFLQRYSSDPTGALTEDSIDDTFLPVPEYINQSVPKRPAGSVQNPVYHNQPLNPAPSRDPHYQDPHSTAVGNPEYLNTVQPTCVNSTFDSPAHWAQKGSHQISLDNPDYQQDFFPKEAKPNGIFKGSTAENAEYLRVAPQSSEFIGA
Description: as §3, §4

EGFR^WT = biological target: T2, EGFR^WT (Homo sapiens, UniProt P00533); test: ELISA kinase activity inhibition, wild-type EGFR; format: biochemical; details: ATP 5 μM, read-out: The average IC50 value (nM) for inhibiting the activity of different tyrosine kinases, EGFR^WT
T2 construct: purchased Eurofins
Description: as §6, §1, §2

Compound | Cmax ([1]; IV 1 mg/kg) [µg/mL] | clearance ([1]; IV 1 mg/kg) [L/h/kg] | half-life ([1]; IV 1 mg/kg) [h] | Cmax ([1]; PO 5 mg/kg) [µg/mL] | half-life ([1]; PO 5 mg/kg) [h] | bioavailability ([1]; PO 5 mg/kg, read-out: F (oral bioavailability)) [%] | IC50 (EGFR^L858R/T790M/C797S) [nM] | GI50 [2] [µM] | IC50 [3] [µM] | IC50 (EGFR^19del/T790M/C797S) [nM] | IC50 (BaF3 parent cell) [µM] | GI50 [4] [µM] | IC50 (EGFR^WT) [nM]
CCS(=O)(=O)n1cc2c3ccc(cc31)OCCCn1cc(cn1)-c1cc(c(OC)cc1N1CCOCC1)Nc1nccc-2n1 [HC9591, (Z)-1^1-Ethylsulfonyl-4^6-methoxy-4^4-morpholin-1^1H,5^1H-9-oxa-3-aza-1 (3,6)-indole-2(4,2)-pyrimidine-5(4,1) pyrazole-4(1,3)-benzenacyclononaphane] | 1.57 ± 0.22 | 0.552 ± 0.126 | 7.1 ± 0.95 | 0.33 ± 0.0565 | 8.13 ± 0.08 | 39.6 ± 9 | 2 | 0.189 | 0.269 | 1.7 | 1.81 | 0.301 | 632
CCS(=O)(=O)n1cc2c3ccc(cc31)OCCCn1cc(cn1)-c1cc(c(OC)cc1N1CCC(N3CCN(C)CC3)CC1)Nc1nccc-2n1 [HC9594, (Z)-1^1-ethylsulfonyl-4^6-methoxy-4^4-(4-methylpiperazin-1-yl) piperidin-1-yl)-1^1H,5^1H-9-oxa-3-aza-1(3,6)-indole-2(4,2)-pyrimidine-5(4,1)-pyrazolol-4(1,3)-benzenacyclononaphane] | – | – | – | – | – | – | 2.2 | 1.22 | 0.925 | 1.7 | > 10 | 0.735 | 112
CCS(=O)(=O)n1cc2c3ccc(cc31)OCCCn1cc(cn1)-c1cc(c(C)cc1N1CCN(C)CC1)Nc1ncc(Cl)c-2n1 [HC9452, 2^5-chloro-1^1-ethylsulfonyl-4^6-methyl-4^4-(4-methylpiperazin-1-yl)-1^1H,5^1H-9-oxa-3-aza-1(3,6)-indole-2(4,2)-pyrimidine-5(4,1)-pyrazole-4(1,3)-benzenacyclononaphane] | – | – | – | – | – | – | 4.3 | 0.472 | 0.081 | 4.3 | 1.79 | 0.591 | 44.7

Results, then the compound that gave them:

Cmax ([1]; IV 1 mg/kg) [µg/mL] | clearance ([1]; IV 1 mg/kg) [L/h/kg] | half-life ([1]; IV 1 mg/kg) [h] | Cmax ([1]; PO 5 mg/kg) [µg/mL] | half-life ([1]; PO 5 mg/kg) [h] | bioavailability ([1]; PO 5 mg/kg, read-out: F (oral bioavailability)) [%] | IC50 (EGFR^L858R/T790M/C797S) [nM] | GI50 [2] [µM] | IC50 [3] [µM] | IC50 (EGFR^19del/T790M/C797S) [nM] | IC50 (BaF3 parent cell) [µM] | GI50 [4] [µM] | IC50 (EGFR^WT) [nM] | Compound
– | – | – | – | – | – | 1.9 | 0.086 | 0.149 | 7.3 | 0.445 | 0.108 | 37.6 | CCS(=O)(=O)n1cc2c3ccc(cc31)OCCCn1cc(cn1)-c1cc(c(C)cc1N1CCOCC1)Nc1nccc-2n1 [HC950M, (Z)-1^1-Ethylsulfonyl-4^6-methyl-4^4-morpholino-1^1H,5^1H-9-oxa-3-aza-1 (3,6)-indole-2(4,2)-pyrimidine-5(4,1) pyrazol-4(1,3)-benzenacyclononaphane]
– | – | – | – | – | – | 0.4 | 0.17 | 0.149 | 4.3 | 0.95 | 0.336 | 111 | CCS(=O)(=O)n1cc2c3ccc(cc31)OCCCn1cc(cn1)-c1cc(ccc1N1CCOCC1)Nc1nccc-2n1 [HC950, 1^1-ethylsulfonyl-4^6-methyl-4^4-(4-methylpiperazin-1-yl)-1^1H,5^1H-9-oxa-3-aza-1(3,6)-indole-2(4,2)-pyrimidine-5(4,1)-pyrazole-4(1,3)-benzenacyclononaphane]
– | – | – | – | – | – | 4.9 | 0.07 | 0.085 | 6.3 | 0.217 | 0.074 | > 1000 | CCS(=O)(=O)n1cc2c3ccc(cc31)OCCCn1cc(cn1)-c1cc(ccc1N1CCOCC1)Nc1ncc(Cl)c-2n1 [HC871, (Z)-2^5-Chloro-1^1-(ethylsulfonyl)-4^4-morpholino-1^1H,5^1H-9-oxa-3-aza-1(3,6)-indola-2(4,2)-pyrimidina-5(4,1)-pyrazola-4(1,3)-benzenacyclononaphane]
